Source: ChEMBL document CHEMBL4732126, “Design, synthesis, and biodistribution studies of new analogues of marine alkaloids: Potent in vitro and in vivo fungicidal agents against Candida spp” (Eur J Med Chem, 2021)
≈ marks a conversion by molar mass, not a printed value. Calls of active or inactive are those of the source. The rule behind the calls is not given here.

How the values were obtained:
[1] = test system: Candida albicans; assay: Antifungal activity against Candida albicans ATCC 10231 assessed as reduction in fungal growth incubated for 48 hrs by broth microdilution method; format: functional
[2] = test system: Candida albicans; assay: Antifungal activity against Candida albicans ATCC 18804 assessed as reduction in fungal growth incubated for 48 hrs by broth microdilution method; format: functional
[3] = test system: Nakaseomyces glabratus; assay: Antifungal activity against Candida glabrata ATCC 2001 assessed as reduction in fungal growth incubated for 48 hrs by broth microdilution method; format: functional
[4] = test system: Pichia kudriavzevii; assay: Antifungal activity against Candida krusei ATCC 34135 assessed as reduction in fungal growth incubated for 48 hrs by broth microdilution method; format: functional
[5] = test system: Candida tropicalis; assay: Antifungal activity against Candida tropicalis ATCC 28707 assessed as reduction in fungal growth incubated for 48 hrs by broth microdilution method; format: functional
[6] = test system: Candida albicans; assay: Antifungal activity against Candida albicans isolate 1 assessed as reduction in fungal growth incubated for 48 hrs by broth microdilution method; format: functional
[7] = test system: Candida albicans; assay: Antifungal activity against Candida albicans isolate 2 assessed as reduction in fungal growth incubated for 48 hrs by broth microdilution method; format: functional
[8] = test system: Candida albicans; assay: Antifungal activity against Candida albicans isolate 3 assessed as reduction in fungal growth incubated for 48 hrs by broth microdilution method; format: functional
[9] = test system: Candida albicans; assay: Antifungal activity against Candida albicans isolate 4 assessed as reduction in fungal growth incubated for 48 hrs by broth microdilution method; format: functional
[10] = test system: Candida albicans; assay: Antifungal activity against Candida albicans isolate 5 assessed as reduction in fungal growth incubated for 48 hrs by broth microdilution method; format: functional
[11] = test system: Candida albicans; assay: Antifungal activity against Candida albicans isolate 6 assessed as reduction in fungal growth incubated for 48 hrs by broth microdilution method; format: functional
[12] = test system: Candida albicans; assay: Antifungal activity against Candida albicans isolate 7 assessed as reduction in fungal growth incubated for 48 hrs by broth microdilution method; format: functional
[13] = test system: Candida albicans; assay: Antifungal activity against Candida albicans isolate 8 assessed as reduction in fungal growth incubated for 48 hrs by broth microdilution method; format: functional
[14] = test system: Candida albicans; assay: Antifungal activity against Candida albicans isolate 9 assessed as reduction in fungal growth incubated for 48 hrs by broth microdilution method; format: functional
[15] = test system: Candida albicans; assay: Antifungal activity against Candida albicans isolate 10 assessed as reduction in fungal growth incubated for 48 hrs by broth microdilution method; format: functional
[16] = test system: Candida albicans; assay: Antifungal activity against Candida albicans isolate 11 assessed as reduction in fungal growth incubated for 48 hrs by broth microdilution method; format: functional
[17] = test system: Candida albicans; assay: Antifungal activity against Candida albicans isolate 12 assessed as reduction in fungal growth incubated for 48 hrs by broth microdilution method; format: functional
[18] = test system: Candida albicans; assay: Antifungal activity against Candida albicans isolate 13 assessed as reduction in fungal growth incubated for 48 hrs by broth microdilution method; format: functional
[19] = test system: Candida albicans; assay: Fungicidal activity against Candida albicans ATCC 18804 assessed as fungal killing incubated for 48 hrs followed by plating on SD agar plate; format: functional; settings: for MFC: read-out: MFC99.9
[20] = test system: Candida albicans; assay: Fungicidal activity against Candida albicans ATCC 10231 assessed as fungal killing incubated for 48 hrs followed by plating on SD agar plate; format: functional; settings: for MFC: read-out: MFC99.9
[21] = test system: Nakaseomyces glabratus; assay: Fungicidal activity against Candida glabrata ATCC 2001 assessed as fungal killing incubated for 48 hrs followed by plating on SD agar plate; format: functional; settings: for MFC: read-out: MFC99.9
[22] = test system: Pichia kudriavzevii; assay: Fungicidal activity against Candida krusei ATCC 34135 assessed as fungal killing incubated for 48 hrs followed by plating on SD agar plate; format: functional; settings: for MFC: read-out: MFC99.9
[23] = test system: Candida tropicalis; assay: Fungicidal activity against Candida tropicalis ATCC 28707 assessed as fungal killing incubated for 48 hrs followed by plating on SD agar plate; format: functional; settings: for MFC: read-out: MFC99.9
[24] = test system: Candida albicans; assay: Fungicidal activity against Candida albicans isolate 2 assessed as fungal killing incubated for 48 hrs followed by plating on SD agar plate; format: functional; settings: read-out: MFC99.9
[25] = test system: Candida albicans; assay: Fungicidal activity against Candida albicans isolate 4 assessed as fungal killing incubated for 48 hrs followed by plating on SD agar plate; format: functional; settings: read-out: MFC99.9
[26] = test system: Candida albicans; assay: Fungicidal activity against Candida albicans isolate 6 assessed as fungal killing incubated for 48 hrs followed by plating on SD agar plate; format: functional; settings: for MFC: read-out: MFC99.9
[27] = test system: Candida albicans; assay: Fungicidal activity against Candida albicans isolate 7 assessed as fungal killing incubated for 48 hrs followed by plating on SD agar plate; format: functional; settings: for MFC: read-out: MFC99.9
[28] = test system: Candida albicans; assay: Fungicidal activity against Candida albicans isolate 8 assessed as fungal killing incubated for 48 hrs followed by plating on SD agar plate; format: functional
[29] = test system: Candida albicans; assay: Fungicidal activity against Candida albicans isolate 9 assessed as fungal killing incubated for 48 hrs followed by plating on SD agar plate; format: functional; settings: for MFC: read-out: MFC99.9
[30] = test system: Candida albicans; assay: Fungicidal activity against Candida albicans isolate 10 assessed as fungal killing incubated for 48 hrs followed by plating on SD agar plate; format: functional; settings: for MFC: read-out: MFC99.9
[31] = test system: Candida albicans; assay: Fungicidal activity against Candida albicans isolate 11 assessed as fungal killing incubated for 48 hrs followed by plating on SD agar plate; format: functional; settings: for MFC: read-out: MFC99.9
[32] = test system: Candida albicans; assay: Fungicidal activity against Candida albicans isolate 12 assessed as fungal killing incubated for 48 hrs followed by plating on SD agar plate; format: functional; settings: for MFC: read-out: MFC99.9
[33] = test system: Candida albicans; assay: Fungicidal activity against Candida albicans isolate 13 assessed as fungal killing incubated for 48 hrs followed by plating on SD agar plate; format: functional; settings: for MFC: read-out: MFC99.9
[34] = test system: Candida albicans; assay: Fungicidal activity against Candida albicans ATCC 10231 assessed as reduction in fungal load at 125 ug/ml incubated for 48 hrs followed by inoculation on SD agar plate for 48 hrs by time-kill assay; format: functional, organism-based; settings: dose 125.0 µg/ml, time 96.0 hrs
[35] = test system: Candida albicans; assay: Antifungal activity against Candida albicans ATCC 10231 assessed as inhibition of yeast to hypha morphological transition at 125 ug/ml measured upto 72 hrs by microscopic analysis; format: functional, organism-based; settings: dose 125.0 µg/ml, time hrs <=72
[36] = test system: Candida albicans; assay: Antifungal activity against Candida albicans ATCC 10231 assessed as reduction in fungal growth incubated for 48 hrs in presence of ergosterol by broth microdilution method; format: functional
[37] = test system: Nakaseomyces glabratus; assay: Antifungal activity against Candida glabrata ATCC 2001 assessed as reduction in fungal growth incubated for 48 hrs in presence of ergosterol by broth microdilution method; format: functional
[38] = test system: Pichia kudriavzevii; assay: Antifungal activity against Candida krusei ATCC 34135 assessed as reduction in fungal growth incubated for 48 hrs in presence of ergosterol by broth microdilution method; format: functional
[39] = test system: Candida tropicalis; assay: Antifungal activity against Candida tropicalis ATCC 28707 assessed as reduction in fungal growth incubated for 48 hrs in presence of ergosterol by broth microdilution method; format: functional
[40] = test system: Candida albicans; assay: Antibiofilm activity against Candida albicans ATCC 10231 assessed as reduction in mature biofilm at 125 ug/ml incubated for 48 hrs by crystal violet staining based spectrophotometric analysis relative to control; format: functional; settings: dose 125.0 µg/ml

Molecule	MIC [1] [µg/mL]	MIC [2] [µg/mL]	MIC [3] [µg/mL]	MIC [4] [µg/mL]	MIC [5] [µg/mL]	MIC [11] [µg/mL]	MIC [12] [µg/mL]	MIC [13] [µg/mL]	MIC [14] [µg/mL]	MIC [15] [µg/mL]	MIC [16] [µg/mL]	MIC [17] [µg/mL]	MIC [18] [µg/mL]	MFC [19] [µg/mL]	MFC [20] [µg/mL]	MFC [21] [µg/mL]	MFC [22] [µg/mL]	MFC [23] [µg/mL]	MFC [26] [µg/mL]	MFC [27] [µg/mL]	further results
CC(=O)N1CCN(c2ccc(OCC3COC(Cn4ccnc4)(c4ccc(Cl)cc4Cl)O3)cc2)CC1 (stereo unspecified) [KETOCONAZOLE]	31.2 (≈ 58.8 µM)	31.2 (≈ 58.8 µM)	125 (≈ 235 µM)	7.8 (≈ 14.7 µM)	31.2 (≈ 58.8 µM)	0.97 (≈ 1.83 µM)	1.95 (≈ 3.67 µM)	3.9 (≈ 7.34 µM)	31.2 (≈ 58.8 µM)	7.8 (≈ 14.7 µM)	31.2 (≈ 58.8 µM)	15.6 (≈ 29.4 µM)	15.6 (≈ 29.4 µM)	125 (≈ 235 µM)	125 (≈ 235 µM)	> 500	7.8 (≈ 14.7 µM)	62.5 (≈ 118 µM)	3.9 (≈ 7.34 µM)	7.8 (≈ 14.7 µM)	MIC [6]: > 500 µg/mL; MIC [7]: 62.3 µg/mL (≈ 117 µM); MIC [8]: > 500 µg/mL; MIC [9]: 31.2 µg/mL (≈ 58.8 µM); MIC [10]: > 500 µg/mL; MFC [24]: > 500 µg/mL; MFC [25]: 125 µg/mL (≈ 235 µM); MFC ([28]; read-out: MFC99.9): 7.8 µg/mL (≈ 14.7 µM); MFC [29]: 250 µg/mL (≈ 470 µM); MFC [30]: 62.5 µg/mL (≈ 118 µM); MFC [31]: 125 µg/mL (≈ 235 µM); MFC [32]: 500 µg/mL (≈ 941 µM); MFC [33]: 250 µg/mL (≈ 470 µM); Activity [34]: inactive; Activity [35]: Active
COC(=O)CCNCCCCCCCCCCCCOCCCc1cccnc1	250 (≈ 615 µM)	250 (≈ 615 µM)	160 (≈ 393 µM)	250 (≈ 615 µM)	160 (≈ 393 µM)	250 (≈ 615 µM)	250 (≈ 615 µM)	> 500	250 (≈ 615 µM)	250 (≈ 615 µM)	250 (≈ 615 µM)	250 (≈ 615 µM)	160 (≈ 393 µM)	250 (≈ 615 µM)	250 (≈ 615 µM)	160 (≈ 393 µM)	250 (≈ 615 µM)	160 (≈ 393 µM)	> 500	250 (≈ 615 µM)	MFC [29]: 250 µg/mL (≈ 615 µM); MFC [30]: 250 µg/mL (≈ 615 µM); MFC [31]: 250 µg/mL (≈ 615 µM); MFC [32]: > 500 µg/mL; MFC [33]: 160 µg/mL (≈ 393 µM)
NYSTATIN	4	4	4	8	2	4	4	4	4	4	4	2	2	–	–	–	–	–	–	–	MFC99.9 [19]: 4 µg/mL; MFC99.9 [20]: 4 µg/mL; MFC99.9 [21]: 4 µg/mL; MFC99.9 [22]: 8 µg/mL; MFC99.9 [23]: 2 µg/mL; MFC99.9 [26]: 4 µg/mL; MFC99.9 [27]: 4 µg/mL; MFC99.9 [28]: 4 µg/mL; MFC99.9 [29]: 4 µg/mL; MFC99.9 [30]: 4 µg/mL; MFC99.9 [31]: 4 µg/mL; MFC99.9 [32]: 4 µg/mL; MFC99.9 [33]: 2 µg/mL; MIC [36]: 31.2 µg/mL; MIC [37]: 31.2 µg/mL; MIC [38]: 31.2 µg/mL; MIC [39]: 3.9 µg/mL; inhibition [40]: 25%
